Reference: ChEMBL document CHEMBL3351946, “Design and synthesis of potent antitumor water-soluble phenyl N-mustard-benzenealkylamide conjugates via a bioisostere approach” (Eur J Med Chem, 2014)
pIC50: −log10 of the molar value. Activity calls are given as the source filed them. No cut-off for these calls is given here.

Columns and labels:
[1] = Antitumor activity against human HCT116 cells xenografted in nude mouse assessed as tumor growth inhibition at 30 mg/kg,iv qd administered for 6 days measured on day 31 relative to control; assay type: functional; conditions: HCT-116, iv, read-out: TGI
[2] = Antitumor activity against human H460 cells xenografted in nude mouse assessed as tumor growth inhibition at 30 mg/kg,iv qd administered for 6 days measured on day 15 relative to control; assay type: functional, NCI-H460
[3] = Toxicity in mouse; assay type: organism-based; conditions: in vivo
[4] = Cytotoxicity against human HCT116 cells assessed as growth inhibition after 72 hrs by Alamar Blue assay; assay type: functional, cell-based; conditions: HCT-116, 72 h
[5] = Antitumor activity against human PC3 cells xenografted in nude mouse assessed as tumor growth inhibition at 40 mg/kg,iv administered every 2 days for 5 doses measured on day 28 to 31 relative to control; assay type: functional, PC-3
[6] = Antitumor activity against human PC3 cells xenografted in nude mouse assessed as tumor growth inhibition at 40 mg/kg,iv administered every 2 days for 5 doses measured on day 38 relative to control; assay type: functional; conditions: PC-3, iv, read-out: TGI
NCI-H460 = assay: Antitumor activity against human H460 cells xenografted in nude mouse assessed as survival at 30 mg/kg,iv qd administered for 6 days; assay type: functional, organism-based; design: dose 30 mg/kg
[7] = Cytotoxicity against human H1299 cells assessed as growth inhibition after 72 hrs by Alamar Blue assay; assay type: functional, cell-based; conditions: NCI-H1299, 72 h
Mus musculus [8] = assay: Toxicity in nude mouse xenografted with human H460 cells assessed as body weight loss at 30 mg/kg,iv qd administered for 6 days measured on day 37 relative to control; assay type: organism-based; design: dose 30 mg/kg; conditions: in vivo, 144 h
Mus musculus [9] = assay: Toxicity in nude mouse xenografted with human HCT116 cells assessed as change in body weight at 30 mg/kg,iv qd administered for 6 days measured on day 31 relative to control; assay type: organism-based, HCT-116; design: dose 30 mg/kg; conditions: in vivo, 144 h
[10] = Cytotoxicity against human PC3 cells assessed as growth inhibition after 72 hrs by Alamar Blue assay; assay type: functional, cell-based; conditions: PC-3, 72 h
HCT-116 = assay: Antitumor activity against human HCT116 cells xenografted in nude mouse assessed as survival at 30 mg/kg,iv qd administered for 6 days; assay type: functional, organism-based; design: dose 30 mg/kg
[11] = Acute toxicity in iv dosed mouse administered for 14 days; assay type: organism-based; conditions: in vivo
[12] = Cytotoxicity against human H460 cells assessed as growth inhibition after 72 hrs by Alamar Blue assay; assay type: functional, cell-based; conditions: NCI-H460, 72 h
[13] = Antitumor activity against human H460 cells xenografted in nude mouse assessed as tumor growth inhibition at 30 mg/kg,iv qd administered for 6 days measured on day 37 relative to control; assay type: functional; conditions: NCI-H460, iv, read-out: TGI
CCRF-CEM [14] = assay: Cytotoxicity against vinblastine-resistant human CCRF-CEM cells assessed as growth inhibition after 72 hrs by Alamar Blue assay; assay type: functional, cell-based
Mus musculus [15] = assay: Toxicity in nude mouse xenografted with human PC3 cells assessed as change in body weight at 40 mg/kg,iv administered every 2 days for 5 doses measured on day 38 relative to control; assay type: organism-based, PC-3; design: dose 40 mg/kg; conditions: in vivo, 48 h
[16] = Antitumor activity against human HCT116 cells xenografted in nude mouse assessed as tumor growth inhibition at 30 mg/kg,iv qd administered for 6 days measured on day 15 relative to control; assay type: functional, HCT-116
Mus musculus [17] = assay: Toxicity in nude mouse xenografted with human H460 cells assessed as body weight loss at 30 mg/kg,iv qd administered for 6 days measured on day 15 relative to control; assay type: organism-based; design: dose 30 mg/kg; conditions: in vivo, 144 h
Mus musculus [18] = assay: Toxicity in nude mouse xenografted with human HCT116 cells assessed as body weight loss at 30 mg/kg,iv qd administered for 6 days measured on day 13 relative to control; assay type: organism-based, HCT-116; design: dose 30 mg/kg; conditions: in vivo, 144 h
CCRF-CEM [19] = assay: Resistance factor, ratio of IC50 for vinblastine-resistant human CCRF-CEM cells to IC50 for human CCRF-CEM cells; assay type: functional
Mus musculus [20] = assay: Toxicity in nude mouse xenografted with human PC3 cells assessed as body weight loss at 40 mg/kg,iv administered every 2 days for 5 doses measured on day 13 relative to control; assay type: organism-based, PC-3; design: dose 40 mg/kg; conditions: in vivo, 48 h
Mus musculus [21] = assay: Toxicity in nude mouse xenografted with human H3347 cells assessed as change in body weight at 30 mg/kg,iv qd administered for 6 days measured on day 31 relative to control; assay type: organism-based; design: dose 30 mg/kg; conditions: in vivo, 144 h
[22] = Antitumor activity against human H3347 cells xenografted in nude mouse assessed as tumor growth inhibition at 30 mg/kg,iv qd administered for 6 days measured on day 16 relative to control; assay type: functional
H3347 = assay: Antitumor activity against human H3347 cells xenografted in nude mouse assessed as survival at 30 mg/kg,iv qd administered for 6 days; assay type: functional, organism-based; design: dose 30 mg/kg
[23] = Antitumor activity against human H3347 cells xenografted in nude mouse assessed as tumor growth inhibition at 30 mg/kg,iv qd administered for 6 days measured on day 31 relative to control; assay type: functional; conditions: read-out: TGI
[24] = Cytotoxicity against human DLD1 cells assessed as growth inhibition after 72 hrs by Alamar Blue assay; assay type: functional, cell-based; conditions: DLD-1, 72 h
HT-29 = assay: Cytotoxicity against human HT-29 cells assessed as growth inhibition after 72 hrs by Alamar Blue assay; assay type: functional, cell-based; conditions: HT-29, 72 h
[25] = Cytotoxicity against human H3347 cells assessed as growth inhibition after 72 hrs by Alamar Blue assay; assay type: functional, cell-based; conditions: H3347, 72 h
Mus musculus [26] = assay: Toxicity in nude mouse xenografted with human H3347 cells assessed as body weight loss at 30 mg/kg,iv qd administered for 6 days; assay type: organism-based; design: dose 30 mg/kg; conditions: in vivo, 144 h
CCRF-CEM [27] = assay: Cytotoxicity against human CCRF-CEM cells assessed as growth inhibition after 72 hrs by Alamar Blue assay; assay type: functional, cell-based
[28] = Antitumor activity against human HCT116 cells xenografted in nude mouse assessed as tumor growth inhibition at 30 mg/kg,iv qd administered for 6 days measured on day 13 relative to control; assay type: functional, HCT-116
Mus musculus [29] = assay: Toxicity in nude mouse xenografted with human HCT116 cells assessed as change in body weight at 30 mg/kg,iv qd administered for 6 days measured on day 30 relative to control; assay type: organism-based, HCT-116; design: dose 30 mg/kg; conditions: in vivo, 144 h
[30] = Antitumor activity against human HCT116 cells xenografted in nude mouse assessed as tumor growth inhibition at 30 mg/kg,iv qd administered for 6 days measured on day 30 relative to control; assay type: functional; conditions: HCT-116, iv, read-out: TGI
[31] = Induction of pEGFP-N1 DNA (unknown origin) interstand crosslinking after 2 hrs by alkaline agarose gel shift assay

SMILES: CN(C)CCNC(=O)c1cccc(NC(=O)Nc2ccc(N(CCCl)CCCl)cc2)c1
- inhibition in vivo at 30 mg/kg [1]: 79%
- %max [2]: 17%
- MTD [3]: 30 mg/kg
- pIC50 [4]: 5.31
- %max [5]: 94%
- inhibition in vivo at 40 mg/kg [6]: 89%
- Activity (NCI-H460): Active
- pIC50 [7]: 4.83
- Activity (Mus musculus [8]): -6%
- Activity (Mus musculus [9]): 0%
- pIC50 [10]: 4.75
- Activity (HCT-116): Active
- LD50 at 336 h [11]: 76 mg/kg
- pIC50 [12]: 4.42
- inhibition in vivo at 30 mg/kg [13]: 8%
- pIC50 (CCRF-CEM [14]): 5.98
- Activity (Mus musculus [15]): -2%
- %max [16]: 81%
- %max (Mus musculus [17]): -16%
- body weight change relative to control (Mus musculus [18]): -7%
- Ratio IC50 (CCRF-CEM [19]): 0.85
- %max (Mus musculus [20]): -16%

SMILES: CCc1c2c(nc3ccc(OC(=O)N4CCC(N5CCCCC5)CC4)cc13)-c1cc3c(c(=O)n1C2)COC(=O)[C@]3(O)CC [IRINOTECAN]
- inhibition in vivo at 30 mg/kg [1]: 85%
- Activity (Mus musculus [21]): 8%
- %max [22]: 90%
- Activity (H3347): Active
- Activity (Mus musculus [9]): 8%
- Activity (HCT-116): Active
- inhibition in vivo at 30 mg/kg [23]: 90%
- pIC50 [24]: 4.60
- pIC50 (HT-29): 4.08
- pIC50 [25]: 5.12
- %max [16]: 92%
- %max (Mus musculus [26]): 0%
- body weight change relative to control (Mus musculus [18]): -3%

SMILES: O=C(CCN1CCCC1)Nc1ccc(NC(=O)Nc2ccc(N(CCCl)CCCl)cc2)cc1
- pIC50 [4]: 5.54
- pIC50 (CCRF-CEM [27]): 6.55
- pIC50 [7]: 5.19
- pIC50 [10]: 5.46
- pIC50 [12]: 5.99
- pIC50 [24]: 4.86
- pIC50 (CCRF-CEM [14]): 4.77
- pIC50 (HT-29): 4.85
- pIC50 [25]: 5.43
- Ratio IC50 (CCRF-CEM [19]): 61.14

SMILES: CN(C)CC(=O)Nc1ccc(NC(=O)Nc2ccc(N(CCCl)CCCl)cc2)cc1
- %max [28]: 72%
- pIC50 [4]: 6.07
- pIC50 (CCRF-CEM [27]): 6.54
- pIC50 [7]: 5.27
- pIC50 [10]: 5.13
- Activity (Mus musculus [29]): 3%
- Activity (HCT-116): Active
- pIC50 [12]: 5.92
- pIC50 [24]: 5.24
- pIC50 (CCRF-CEM [14]): 5.87
- pIC50 (HT-29): 4.70
- pIC50 [25]: 5.82
- inhibition in vivo at 30 mg/kg [30]: 51%
- Activity [31]: Dose-dependent effect
- body weight change relative to control (Mus musculus [18]): -3%
- Ratio IC50 (CCRF-CEM [19]): 4.62

SMILES: O=C(CN1CCCC1)Nc1ccc(NC(=O)Nc2ccc(N(CCCl)CCCl)cc2)cc1
- pIC50 [4]: 5.88
- pIC50 (CCRF-CEM [27]): 6.59
- pIC50 [7]: 5.47
- pIC50 [10]: 5.45
- pIC50 [12]: 6.02
- pIC50 [24]: 5.36
- pIC50 (CCRF-CEM [14]): 5.70
- pIC50 (HT-29): 4.91
- pIC50 [25]: 5.82
- Ratio IC50 (CCRF-CEM [19]): 7.69
